Measurements from PubChem BioAssay (NCI).
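Five compound concentrations were applied to cells in 96-well plates for 48 hours; endpoints were derived by simple linear interpolation of the resulting dose-response curve. Here, GI50 denotes the concentration required for 50% inhibition of growth. At the TGI there is no net growth.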

Tests used:
Experiment in all cases: inhibition of tumour cell growth, NCI panel, 48 h
NCI-H460 lung = system: NCI-H460 lung
T-47D breast = system: T-47D breast
UACC-62 melanoma = system: UACC-62 melanoma
SK-MEL-5 melanoma = system: SK-MEL-5 melanoma
RXF 393 renal = system: RXF 393 renal
SW-620 colon = system: SW-620 colon
SF-539 CNS = system: SF-539 CNS

Compound | GI50 (NCI-H460 lung) [µM] | TGI (NCI-H460 lung) [µM] | GI50 (T-47D breast) [µM] | TGI (T-47D breast) [µM] | GI50 (UACC-62 melanoma) [µM] | TGI (UACC-62 melanoma) [µM] | GI50 (SK-MEL-5 melanoma) [µM] | TGI (SK-MEL-5 melanoma) [µM] | GI50 (RXF 393 renal) [µM] | TGI (RXF 393 renal) [µM] | GI50 (SW-620 colon) [µM] | TGI (SW-620 colon) [µM] | GI50 (SF-539 CNS) [µM] | TGI (SF-539 CNS) [µM]
O=C(Nc1cccc(-n2ccc3c(NC(=O)c4ccccc4)nccc32)c1)Nc1cc(C(F)(F)F)cc(C(F)(F)F)c1 | 1.7 | > 50 | 12.6 | > 50 | 2 | 13 | 0.946 | 1.95 | 1.16 | 3.17 | 2.06 | > 50 | 1.39 | 4.76
Oc1ccc(-c2nc(-c3cccnc3)c(-c3ccc(Cl)cc3)[nH]2)cc1O |  |  |  | 37.9 |  | 23.3 |  | 27.6 |  | 25.6 |  | 27.2 |  | 
COC(=O)/C=C\n1c(C)cc(=O)[nH]c1=O |  | > 100 |  | > 100 |  | > 100 |  | > 100 |  | > 100 |  | > 100 |  | > 100
O=C(c1ccco1)N1CCCN(C(=O)c2ccco2)C1=S |  | > 100 |  | 93.3 |  | > 100 |  | > 100 |  | > 100 |  | > 100 |  | > 100
Cn1c(=O)c(C(=O)Nc2nc(C34CC5CC(CC(C5)C3)C4)cs2)c(O)c2ccccc21 |  | > 100 |  |  |  |  |  | > 100 |  | 65 |  | > 100 |  | > 100
CCCCCCCCOC1C(O)C(O)C(O)C(O)C12CO2 (centres undefined) |  | > 100 |  | > 100 |  | > 100 |  |  |  | > 100 |  | > 100 |  | > 100
O=S(=O)(O)c1cc(O)c2c(N=Cc3ccccc3O)cc(S(=O)(=O)O)cc2c1 |  | > 100 |  | > 100 |  | > 100 |  | > 100 |  | > 100 |  | > 100 |  | > 100
Cc1c(Cl)nc(Nc2nc3ccccc3[nH]2)nc1Cl |  | > 100 |  | > 100 |  | > 100 |  | > 100 |  | > 100 |  | > 100 |  | > 100
CC(O)c1cc2c(s1)C(=O)c1sccc1C2=O (centres undefined) |  | 0.268 |  | 0.879 |  | 0.126 |  | 0.0362 |  | 0.351 |  |  |  | 
COc1ccc2nc3ccc(OC)cc3c(SCCO)c2c1 |  | > 100 |  | > 100 |  | > 100 |  | > 100 |  | > 100 |  | > 100 |  | > 72.4
O=C(/C=C/c1ccc(O)c(O)c1)OCCCc1ccccc1 |  | 55.6 |  | 45.9 |  | 23.6 |  | 26.3 |  | 25.5 |  | 32 |  | 5.81
COC(=O)/C(=C\Nc1cccc(C)n1)S(=O)(=O)c1ccc(C)cc1 |  | > 100 |  | > 100 |  | 91.5 |  | > 100 |  | > 100 |  | > 100 |  | > 100
CCC(CON(C)c1ccccc1)(SC)SC |  | > 100 |  | > 100 |  | > 100 |  | > 100 |  |  |  | > 100 |  | > 100
CC(=O)OCCCOCn1c(Cc2ccccc2)c(C)c(=O)[nH]c1=O |  | > 100 |  | > 100 |  | > 100 |  | > 100 |  | > 100 |  | > 100 |  | > 100
Nn1c(COc2cccc(OCc3n[nH]c(=S)n3N)c2)n[nH]c1=S |  | > 100 |  | > 100 |  | > 100 |  |  |  | > 100 |  | > 100 |  | > 100
COC(=O)[C@]1(c2cc3ccccc3n2S(=O)(=O)c2ccccc2)CC2CN(C(C)=O)C1CC2=O (some centres undefined) |  | 10.9 |  | 7.05 |  | 3.27 |  | 14 |  | 3.39 |  | > 20.9 |  | 12.7
CCN(CC)CC1CCCCN1CC(=O)N1c2ccccc2NC(=O)CC1C (centres undefined) |  | > 100 |  | > 100 |  |  |  | > 100 |  | > 100 |  | > 100 |  | > 100
CCOC(=O)C1=CNC(C(=O)OCC)C1c1cccn1-c1ccc(Cl)cc1[N+](=O)[O-] (centres undefined) |  | 61.3 |  | > 100 |  | 35 |  | 30.3 |  | 36.7 |  | > 100 |  | 30.8
O=C(NCCC1([N+](=O)[O-])CCN(C(=O)c2ccccc2)CC1)c1ccccc1 |  | > 100 |  | > 100 |  | > 100 |  | > 100 |  | > 100 |  | > 100 |  | > 100
OC(c1cc2ccccc2o1)c1cc2ccccc2s1 (centres undefined) |  | > 10 |  | > 10 |  | > 10 |  | > 10 |  | > 10 |  | > 10 |  | > 10
COC(=O)C1Cc2c(OC)ccc(OC)c2CC(C(=O)OC)C1=O (centres undefined) |  | > 100 |  | > 100 |  | > 100 |  | > 100 |  | > 100 |  | > 100 |  | > 100
C1CCC2(CC1)O[C@@H]1[C@@H](O2)[C@@H](O[C@H]2O[C@@H]3COC4(CCCCC4)O[C@H]3[C@@H]3OC4(CCCCC4)O[C@@H]23)O[C@@H]2COC3(CCCCC3)O[C@@H]12 |  |  |  | > 100 |  | > 100 |  | > 100 |  | > 100 |  | > 100 |  | > 100
Cc1nc(C)c(C(=O)NNC(N)=S)cc1C(=O)NNC(N)=S |  | > 100 |  | > 100 |  | > 100 |  | > 100 |  | > 100 |  | > 100 |  | > 100
CCCN1C(=O)CC(C)N(Cc2ccccc2Cl)C1=S (centres undefined) |  | > 100 |  | 44.1 |  | 46.3 |  | 33.4 |  | 21.9 |  | > 100 |  | 36
CC(=O)[C@@]1(C)CC2(CCN(C)CC2)OC1C (some centres undefined) |  | > 100 |  | > 100 |  |  |  | > 100 |  | > 100 |  | > 100 |  | > 100
CC1(C)N=C(C(N)=O)c2ncn(N)c2N1 |  | > 100 |  | > 100 |  | > 100 |  | > 100 |  | > 100 |  | > 100 |  | > 100
CC[C@]12C=CCN3CC[C@@]4(c5cc(Br)c(OC)cc5N(C)[C@H]4[C@@](O)(C(=O)NN)[C@@H]1O)[C@@H]32 |  | > 100 |  | > 100 |  | > 100 |  | > 100 |  | 99.2 |  | > 100 |  | 69.3
